Here are results for 32 compounds from patent US7834024B2, “Compositions and methods for inhibition of the JAK pathway” (Rigel Pharmaceuticals, Inc., priority 2007, dated 2010).

In one experiment the test system is Ramos B-Cell Line Stimulated with IL-4 (JAK-1 and JAK-3 / Stat-6, CD23). The experiment in a line: Assay for Ramos B-Cell Line Stimulated with IL-4 (CD23 upregulation, FACS). It counts as cell-based. To be noted: Homo sapiens, Ramos, human Ramos B cells, compound 1 hour, IL-4 50 units/mL for 20-24 hours, anti-CD23-PE FACS; read-out: Example 2 (IC50). From the text:
One means of assaying for such inhibition is detection of the effect of the 2,4-pyrimidinediamine compounds on the upregulation of downstream gene products. In the Ramos/IL4 assay, B-cells are stimulated with the cytokine Interleukin-4 (IL-4) leading to the activation of the JAK/Stat pathway through phosphorylation of the JAK family kinases, JAK1 and JAK3, which in turn phosphorylate and activate the transcription factor Stat-6. […] To study the effect of inhibitors (e.g., the 2,4-substituted pyrimindinediamine compounds described herein) on the JAK1 and JAK3 kinases, human Ramos B cells are stimulated with human IL-4. 20 to 24 hours post stimulation, cells are stained for upregulation of CD23 and analyzed using flow cytometry (FACS).
B-cells stimulated with cytokine Interleukin-4 (IL-4) activate the JAK/Stat pathway through phosphorylation of the JAK family kinases, JAK-1 and JAK-3, which in turn phosphorylate and activate the transcription factor Stat-6. […] To study the effect of inhibitors on the JAK family kinases, human Ramos B cells were stimulated with human IL-4.
Cells were maintained at a density of 3.5×10^5. The day before the experiment, Ramos B-cells were diluted to 3.5×10^5 cells/mL to ensure that they were in a logarithmic growth phase.
Cells were spun down and suspended in RPMI with 5% serum. 5×10^4 cells were used per point in a 96-well tissue culture plate. Cells were pre-incubated with compound or DMSO (Sigma-Aldrich, St. Louis, Mo., Cat No. D2650) vehicle control for 1 hour in a 37° C. incubator. Cells were then stimulated with IL-4 (Peprotech Inc., Rocky Hill, N.J., Cat No. 200-04) for a final concentration of 50 units/mL for 20-24 hours. […] Detection was performed using a BD LSR I System Flow Cytometer, purchased from Becton Dickinson Biosciences of San Jose, Calif.
For `Cc1nc(COc2ccc(Nc3nc(Nc4ccc(N5CCN(C)CC5)c(C(N)=O)c4)ncc3F)cc2)no1` [Compound I-62, N2-[3-Aminocarbonyl-4-(4-methylpiperazin-1-yl)phenyl]-5-fluoro-N4-[4-((5-methyl-1,2,4-oxadiazol-3-yl)methoxy)phenyl]-2,4-pyrimidinediamine], the concentration for half-maximal inhibition (IC50) (in general, the concentration needed to halve the response being measured) came out at 80.5 nM.
As for `CNC(=O)c1cc(Nc2ncc(F)c(Nc3ccc(OCc4noc(C)n4)cc3)n2)ccc1N1CCN(C)CC1` [Compound I-63, 5-Fluoro-N2-[3-methylaminocarbonyl-4-(4-methylpiperazin-1-yl)phenyl]-N4-[4-((5-methyl-1,2,4-oxadiazol-3-yl)methoxy)phenyl]-2,4-pyrimidinediamine], the half-maximal inhibitory concentration (IC50) came out at 265 nM.
On to `N#CCOc1ccc(Nc2nc(Nc3ccc(CC#N)cc3)ncc2F)cc1` [Compound I-64, N4-(4-Cyanomethoxyphenyl)-N2-(4-cyanomethylphenyl)-5-fluoro-2,4-pyrimidinediamine], for which the IC50 is 79.7 nM.
Same read-out and setting: the figure for `N#CCc1ccc(Nc2ncc(F)c(Nc3cccc(OCC(N)=O)c3)n2)cc1` [Compound I-65, N4-(3-Aminocarbonylmethoxyphenyl)-N2-(4-cyanomethylphenyl)-5-fluoro-2,4-pyrimidinediamine] is 189 nM; for `N#CCOc1cccc(Nc2nc(Nc3ccc(CC#N)cc3)ncc2F)c1` [Compound I-66, N4-(3-Cyanomethoxyphenyl)-N2-(4-cyanomethylphenyl)-5-fluoro-2,4-pyrimidinediamine] it is 42.2 nM.
On the same count and under the same terms, the figure for `N#CCc1ccc(Nc2nc(Nc3ccc(C(N)=O)cc3)ncc2F)cc1` [Compound I-67, N2-(4-Aminocarbonylphenyl)-N4-(4-cyanomethylphenyl)-5-fluoro-2,4-pyrimidinediamine] is 171 nM; for `N#CCc1ccc(Nc2nc(Nc3cccc(C(N)=O)c3)ncc2F)cc1` [Compound I-68, N2-(3-Aminocarbonylphenyl)-N4-(4-cyanomethylphenyl)-5-fluoro-2,4-pyrimidinediamine] it is 1620 nM; for `N#CCc1ccc(Nc2nc(Nc3ccc(C#N)cc3)ncc2F)cc1` [Compound I-69, N4-(4-Cyanomethylphenyl)-N2-(4-cyanophenyl)-5-fluoro-2,4-pyrimidinediamine] it is 7190 nM.
The same measure, in the same setting: as for `N#CCc1ccc(Nc2nc(Nc3cccc(C#N)c3)ncc2F)cc1` [Compound I-70, N4-(4-Cyanomethylphenyl)-N2-(3-cyanophenyl)-5-fluoro-2,4-pyrimidinediamine], the figure is 1150 nM; as for `N#CCc1ccc(Nc2ncc(F)c(Nc3ccc(CC#N)cc3)n2)cc1` [Compound I-71, N2,N4-Bis(4-cyanomethylphenyl)-5-fluoro-2,4-pyrimidinediamine], 195 nM.
Turning to `CN1CCN(c2ccc(Nc3ncc(F)c(Nc4ccc(CC#N)cc4)n3)cc2C(N)=O)CC1` [Compound I-74, N2-[3-Aminocarbonyl-4-(4-methylpiperazin-1-yl)phenyl]-N4-(4-cyanomethylphenyl)-5-fluoro-2,4-pyrimidinediamine], the IC50 was found to be 429 nM.
Regarding `CNC(=O)c1cc(Nc2ncc(F)c(Nc3ccc(CC#N)cc3)n2)ccc1N1CCN(C)CC1` [Compound I-75, N4-(4-Cyanomethylphenyl)-5-fluoro-N2-[3-methylaminocarbonyl-4-(4-methylpiperazin-1-yl)phenyl]-2,4-pyrimidinediamine], the IC50 was 694 nM.
As to `N#CCc1ccc(Nc2ncc(F)c(Nc3ccc(OCC(N)=O)cc3)n2)cc1` [Compound I-76, N4-(4-Aminocarbonylmethoxyphenyl)-N2-(4-cyanomethylphenyl)-5-fluoro-2,4-pyrimidinediamine], the half-maximal inhibitory concentration (IC50) amounted to 278 nM.
Same read-out and setting: the figure for `Cc1nc(COc2ccc(Nc3nc(Nc4ccc(CC#N)cc4)ncc3F)cc2)no1` [Compound I-77, N2-(4-Cyanomethylphenyl)-5-fluoro-N4-[4-((5-methyl-1,2,4-oxadiazol-3-yl)methoxy)phenyl]-2,4-pyrimidinediamine] is 247 nM.
Still for that read-out and setting: the figure for `CC(C#N)Oc1ccc(Nc2nc(Nc3ccc(CC#N)cc3)ncc2F)cc1` (centres unmarked) [Compound I-78, N4-[4-(1-Cyanoethoxy)phenyl]-N2-(4-cyanomethylphenyl)-5-fluoro-2,4-pyrimidinediamine] is 117 nM.
Still for that read-out and setting: as for `CC(C#N)Oc1ccc(Nc2nc(Nc3ccc(C(N)=O)cc3)ncc2F)cc1` (centres unmarked) [Compound I-81, N2-(4-Aminocarbonylphenyl)-N4-[4-(1-cyanoethoxy)phenyl]-5-fluoro-2,4-pyrimidinediamine], the figure is 52.9 nM; as for `CC(C#N)Oc1ccc(Nc2nc(Nc3cccc(C(N)=O)c3)ncc2F)cc1` (centres unmarked) [Compound I-82, N2-(3-Aminocarbonylphenyl)-N4-[4-(1-cyanoethoxy)phenyl]-5-fluoro-2,4-pyrimidinediamine], 350 nM.
In the case of `CC(C)(C#N)Oc1ccc(Nc2nc(Nc3ccc(CC#N)cc3)ncc2F)cc1` [Compound I-83, N4-[4-(1-Cyano-1-methylethoxy)phenyl]-N2-(4-cyanomethylphenyl)-5-fluoro-2,4-pyrimidinediamine], the IC50 came to 424 nM.
As for `CC(C)(C#N)Oc1ccc(Nc2nc(Nc3ccc(C(N)=O)cc3)ncc2F)cc1` [Compound I-84, N2-(4-Aminocarbonylphenyl)-N4-[4-(1-cyano-1-methylethoxy)phenyl]-5-fluoro-2,4-pyrimidinediamine], the 50% inhibitory concentration (IC50) was 148 nM.
As to `CC(C)(C#N)Oc1ccc(Nc2nc(Nc3cccc(C(N)=O)c3)ncc2F)cc1` [Compound I-85, N2-(3-Aminocarbonylphenyl)-N4-[4-(1-cyano-1-methylethoxy)phenyl]-5-fluoro-2,4-pyrimidinediamine], the IC50 came to 760 nM.
Still for that read-out and setting: the figure for `Cc1cc(Nc2nc(Nc3ccc(CC#N)cc3)ncc2F)ccc1OCC#N` [Compound I-86, N4-(4-Cyanomethoxy-3-methylphenyl)-N2-(4-cyanomethylphenyl)-5-fluoro-2,4-pyrimidinediamine] is 142 nM.
Regarding `Cc1cc(Nc2nc(Nc3ccc(C(N)=O)cc3)ncc2F)ccc1OCC#N` [Compound I-87, N2-(4-Aminocarbonylphenyl)-N4-(4-cyanomethoxy-3-methylphenyl)-5-fluoro-2,4-pyrimidinediamine], the IC50 worked out at 44.4 nM.
Same read-out and setting: as for `Cc1cc(Nc2nc(Nc3ccc(CC#N)cc3)ncc2F)cc(C)c1OCC#N` [Compound I-89, N4-(4-Cyanomethoxy-3,5-dimethylphenyl)-N2-(4-cyanomethylphenyl)-5-fluoro-2,4-pyrimidinediamine], the figure is 167 nM.
Still for that read-out and setting: the figure for `Cc1cc(Nc2nc(Nc3ccc(C(N)=O)cc3)ncc2F)cc(C)c1OCC#N` [Compound I-90, N2-(4-Aminocarbonylphenyl)-N4-(4-cyanomethoxy-3,5-dimethylphenyl)-5-fluoro-2,4-pyrimidinediamine] is 91.5 nM; for `Cc1cc(Nc2nc(Nc3cccc(C(N)=O)c3)ncc2F)cc(C)c1OCC#N` [Compound I-91, N2-(3-Aminocarbonylphenyl)-N4-(4-cyanomethoxy-3,5-dimethylphenyl)-5-fluoro-2,4-pyrimidinediamine] it is 333 nM; for `Cc1cc(Nc2nc(Nc3ccc(C(N)=O)cc3)ncc2F)ccc1OC(C)C#N` (centres unmarked) [Compound I-92, N2-(4-Aminocarbonylphenyl)-N4-[4-(1-cyanoethoxy)-3-methylphenyl]-5-fluoro-2,4-pyrimidinediamine] it is 127 nM.
Take `Cc1cc(Nc2nc(Nc3cccc(C(N)=O)c3)ncc2F)ccc1OC(C)C#N` (centres unmarked) [Compound I-93, N2-(3-Aminocarbonylphenyl)-N4-[4-(1-cyanoethoxy)-3-methylphenyl]-5-fluoro-2,4-pyrimidinediamine]: the IC50 turned out to be 331 nM.
On the same count and under the same terms, as for `Cc1cc(Nc2nc(Nc3ccc(CC#N)cc3)ncc2F)ccc1OC(C)C#N` (centres unmarked) [Compound I-94, N4-[4-(1-Cyanoethoxy)-3-methylphenyl]-N2-(4-cyanomethylphenyl)-5-fluoro-2,4-pyrimidinediamine], the figure is 381 nM.

Still in this experiment, the particulars now being: human Ramos B cells, compound 1 hour, IL-4 50 units/mL for 20-24 hours, anti-CD23-PE FACS; read-out: Example 2 (IC50).
Consider `CN1CCN(C(=O)c2ccc(Nc3ncc(F)c(Nc4ccc(CC#N)cc4)n3)cc2)CC1` [Compound I-72, N4-(4-Cyanomethylphenyl)-5-fluoro-N2-[4-((4-methylpiperazin-1-yl)carbonyl)phenyl]-2,4-pyrimidinediamine], for which the IC50 was 599 nM.
On the same count and under the same terms, the figure for `CN1CCN(C(=O)c2ccc(Nc3ncc(F)c(Nc4ccc(CC#N)cc4)n3)cc2)CC1` [Compound I-73, N4-(4-Cyanomethylphenyl)-5-fluoro-N2-[4-((4-methylpiperazin-1-yl)carbonyl)phenyl]-2,4-pyrimidinediamine] is 1730 nM.
Same read-out and setting: as for `CC(C#N)Oc1ccc(Nc2nc(Nc3ccc(C#N)cc3)ncc2F)cc1` (centres unmarked) [Compound I-79, N4-[4-(I-Cyanoethoxy)phenyl]-N2-(4-cyanophenyl)-5-fluoro-2,4-pyrimidinediamine], the figure is 361 nM; as for `CC(C#N)Oc1ccc(Nc2nc(Nc3cccc(C#N)c3)ncc2F)cc1` (centres unmarked) [Compound I-80, N4-[4-(I-Cyanoethoxy)phenyl]-N2-(3-cyanophenyl)-5-fluoro-2,4-pyrimidinediamine], 189 nM.
